According to patent US20140377265A1, “ANTICOAGULANT ANTIDOTES” (BOEHRINGER INGELHEIM INTERNATIONAL GMBH, priority 2011, published 2014):

Assays:
[1] = tested on: activated partial thromboplastin time; conditions: cited from earlier work
[2] = tested on: thrombin clotting time in human plasma; experiment: Thrombin clotting time assay, dabigatran standard curve in human plasma; assay type: biochemical
Protocol: Briefly human plasma is obtained by taking whole blood into 3.13% sodium citrate. This is then centrifuged to obtain platelet free plasma and transferred to a separate tube and frozen until required on the day of the assay. Plasma is thawed at 37° C. on the day of the assay.
The thrombin clotting time is performed as follows. First thrombin is diluted to manufacturer's specification (3 IU/mL thrombin) in the buffer provided (Dade Behring Test kit) and prewarmed to 37° C. It is used within 2 hrs of being prepared. All assays were performed on a commercially available CL4 clotting machine (Behnk Electronics, Norderstadt, Germany). Fifty μL of plasma is pipetted into provided cuvettes with a magnetic stirrer and allowed to stir for 2 min in the well preheated to 37° C. in the CL4 machine. At this point 100 μL of the thrombin solution is added and the time required for the plasma sample to clot is recorded automatically by the CL4.

Row | SMILES | prolongation of the activated partial thromboplastin time compared with dabigatran [1] | thrombin clotting time ([2]; 200 nM dabigatran preincubated with human plasma) [s] | elevation in clotting time over baseline ([2]; 200 nM dabigatran, human plasma) [fold] | increase in clotting time over baseline ([2]; 500 nM dabigatran, human plasma) [fold]
1 | Cn1c(CNc2ccc(C(=N)N)cc2)nc2cc(C(=O)N(CCC(=O)OC3OC(C(=O)O)C(O)C(O)C3O)c3ccccn3)ccc21 (stereo not shown) [1-O-acylglucuronide] | equipotent prolongation | – | – | –
2 | Cn1c(CNc2ccc(C(=N)N)cc2)nc2cc(C(=O)N(CCC(=O)O)c3ccccn3)ccc21 [dabigatran, N-[2-(4-Amidinophenylaminomethyl)-1-methyl-1H-benzimidazol-5-ylcarbonyl]-N-(2-pyridyl)-beta-alanine] | – | 51 | ~5 | ~10
